How the values were obtained:
MIK2-BAK1 association = assay: Co-immunoprecipitation MIK2-BAK1; format: cell-based, Arabidopsis thaliana; conditions: co-IP
Method: For co-IP assays in protoplasts, protoplasts were co-transfected with pHBT-35S::MIK2-HA and pHBT-35S::BAK1-FALG or pHBT-35S::SERK4-FLAG at 50 μg DNA for 500 μL protoplasts at the density of 2 × 10^5/mL for each sample and were incubated for 12 h. After treatment with 1 µM SCOOP peptides for 15 min, samples were collected by centrifugation at 200 × g for 2 min and lysed in 300 μL IP buffer (20 mM Tris-HCl, pH 7.5, 100 mM NaCl, 1 mM EDTA, 2 mM DTT, 10% [v/v] Glycerol, 0.5% [v/v] Triton X-100 and protease inhibitor cocktail from Sigma) by vortexing. After centrifugation at 10,000 × g for 10 min at 4 °C, 30 μL of supernatant was collected for input controls. The remaining supernatant was pre-incubated with protein-G-agarose beads at 4 °C for 1 h with gentle shaking at […] on a rocker. IP was carried out with α-FLAG agarose for 3 h at 4 °C. Beads were collected by 500 × g centrifugation for 2 min and washed three times with washing buffer (20 mM Tris-HCl, pH 7.5, 100 mM NaCl, 1 mM EDTA, 0.1% [v/v] Triton X-100) and once with 50 mM Tris-HCl, pH 7.5. Immunoprecipitated proteins and input proteins were analyzed by immunoblotting with α-HA (1:3000; Roche, Cat # 12013819001) or α-FLAG antibodies (1:3000; Sigma-Aldrich, Cat # A8592).
For co-IP assays in transgenic seedlings, leaves of 4-week-old pMIK2::MIK2-GFP transgenic plants were hand-inoculated with 1 μM SCOOP10^B or SCOOP12 and were treated for 30 min, followed by total protein isolation with extraction buffer (50 mM Tris-HCl, pH 7.5, 150 mM NaCl, 1% [v/v] NP-40 and 1:200 protease inhibitor cocktail from Sigma). Co-IP was carried out the same as for co-IP with protoplasts except that GFP-Trap agarose beads (Chromotek) were used instead. Immunoprecipitated proteins and input proteins were analyzed by immunoblotting with α-GFP (1:3500; Roche, Cat # 11814460001) or α-BAK1 antibodies (1:2000)[64].

mik2 mutant seedlings = assay: ROS assay (luminol), mik2 mutants; format: in vivo, Arabidopsis thaliana
Method: ROS burst was determined by a luminol-based assay. […] Then, ddH2O was replaced by 200 µL of reaction solution containing 50 µM of luminol, and 10 µg/mL of horseradish peroxidase (Sigma-Aldrich) supplemented with or without 100 nM or 1 μM peptide. Luminescence was measured immediately after adding the solution with a luminometer (Glomax 20/20n, Promega) with a one-second interval for 15 min. The total values of ROS production were indicated as means of the relative light units (RLUs).

BIK1 = BIK1 phosphorylation assay; format: cell-based, Arabidopsis thaliana; conditions: protoplasts expressing BIK1-HA, 1 μM, 15 min, mobility shift
Method: WT protoplasts were transfected with pHBT-35S::BIK1-HA for 12 h followed by treatment with 1 μM SCOOP peptides for 15 min.

[1] = test system: bik1/pbl1 mutant seedlings; assay: Root growth assay, bik1/pbl1 mutant; format: in vivo, Arabidopsis thaliana; conditions: bik1/pbl1, 1 µM
Text: (§1) The Arabidopsis thaliana accession Columbia-0 (Col-0) was used as wild type (WT). T-DNA insertion mutants of mik2-1 (SALK_061769), mik2-2 (SALK_046987), mik2-like (SALK_112341), and rlk7-3 (SALK_120595) were obtained from the Nottingham Arabidopsis Stock Centre (NASC). The fls2 (SALK_141277), bak1-4, bik1-1/pbl1-1, bak1-5/serk4-1, rbohd mutants, and the transgenic line expressing p35S::GFP have been reported previously[19],[62],[63]. The hae/hsl2 mutant was kindly provided by Dr. Reidunn B. Aalen (University of Oslo, Norway), the pepr1-2/pepr2-2 (pepr1,2) mutant by Dr. Zhi Qi (Inner Mongolia University, China), the scoop12 mutant by Dr. Sébastien Aubourg (INRA, France), a transgenic line expressing p35S::Aequorin by Dr. Marc Knight (Durham University, UK), transgenic line expressing pMYB51::GUS by Dr. Frederick M. Ausubel (Harvard Medical School, USA). […]
(§2) Cold stratified seeds were surface-sterilized with 70% (v/v) ethanol for 5 min and were sown on ½MS plates with or without peptides at indicated concentrations. Ten-day-old seedlings grown on plates vertically in a growth chamber were photographed, and the root lengths of seedlings were measured using Image J (http://rsb.info.nih.gov/ij/).

[2] = test system: bak1-4 and bak1-5/serk4 mutant seedlings; assay: Root growth assay, coreceptor mutants; format: in vivo, Arabidopsis thaliana
Text: as §1, §2

Arabidopsis = conditions: cited from earlier work
Text: Some plant LRR-RKs are pattern recognition receptors (PRRs) that recognize pathogen- or microbe-associated molecular patterns (PAMPs or MAMPs) or damage-associated molecular patterns (DAMPs) and initiate pattern-triggered immunity (PTI)[10]-[13]. […] Despite the differ ... || Plant plasma membrane-resident RKs perceive diverse exogenous and endogenous signals via the extracellular domain and activate intracellular responses through the cytoplasmic kinase domain[1]-[3]. The chimeric receptors with the swapped extracellular and intracellular domains between different RKs have been used to study the specificity of signal perception and signaling activation[48]-[52]. The extracellular domains of RKs determine the ligand-binding specificity[50],[51],[53]. The intracellular kinase domains of different RKs also trigger specific responses. […] It remains unknown why plants have evolved so many SCOOPs and the functional specificity for different SCOOPs. […] SCOOP12, the most studied SCOOP, is highly expressed in roots (Fig. 2b), and was indicated to regulate ro ...

Substance	MIK2-BAK1 association (MIK2-BAK1 association; pMIK2::MIK2-GFP/mik2 leaves, 1 μM, 30 min)	MIK2-BAK1 association in protoplasts (MIK2-BAK1 association; protoplasts, MIK2-HA and BAK1-FLAG, 15 min)	ROS production, total luminescence (Fig. 3f) (mik2 mutant seedlings; mik2-1, repeat 1)	ROS production, total luminescence (Fig. 3f) (mik2 mutant seedlings; mik2-1, repeat 2)	ROS production, total luminescence (Fig. 3f) (mik2 mutant seedlings; mik2-1, repeat 3)	ROS production, total luminescence (Fig. 3f) (mik2 mutant seedlings; mik2-2, repeat 1)	ROS production, total luminescence (Fig. 3f) (mik2 mutant seedlings; mik2-2, repeat 2)	ROS production, total luminescence (Fig. 3f) (mik2 mutant seedlings; mik2-2, repeat 3)	ROS production in mik2 (mik2 mutant seedlings; mik2 mutants, 100 nM SCOOPs or 1 µM FocSCOOPL)	BIK1 phosphorylation (BIK1)	root growth inhibition in bik1/pbl1 [1]	root growth inhibition in bak1-4 ([2]; bak1-4, 1 µM)	root growth inhibition in bak1-5/serk4 ([2]; bak1-5/serk4, 1 µM)	BIK1 dependence of responses (Arabidopsis)
PNGDIFTGPSGSGHGGGR [SCOOP10B, synthesized SCOOP peptide corresponding to the SxS motif]	stimulated upon the treatment	also observed in protoplasts	113000	107000	114000	119000	155000	128000	abolished in mik2 mutants	led to the phosphorylation of BIK1	significantly compromised in the bik1/pbl1 mutant	partially compromised in bak1-4	compromised in bak1-4 and bak1-5/serk4	–
RLASGP(OH)SPRGRGH [PIP1, secreted peptide, ligand of RLK7]	–	–	–	–	–	–	–	–	–	–	–	–	–	BIK1-independent

Reference: article PMC8448819, “The Arabidopsis MIK2 receptor elicits immunity by sensing a conserved signature from phytocytokines and microbes” (Nature Communications, 2021)
